Test results: ChEMBL document CHEMBL1136550, “Discovery of orally bioavailable NK1 receptor antagonists” (Bioorg Med Chem Lett, 2003)
In brackets after ≈: the same amount, converted by molar mass. Each block holds one compound with its values, some of them ahead of it.

What was measured:
Substance-P receptor [1] = target: T1, Substance-P receptor (Homo sapiens, UniProt P25103); assay: Displacement of [3H]-substance P from human NK1 receptor expressed in CHO cells; format: cell-based
Cavia porcellus [2] = assay: Inhibition of SP-induced pulmonary edema in guinea-pig 30 min after oral administration at a dose of 10 mg/kg; format: functional; settings: 0.5 h
Cavia porcellus [3] = assay: Inhibition of SP-induced pulmonary edema in guinea-pig 120 min after oral administration at a dose of 10 mg/kg; format: functional; settings: 2 h
Cavia porcellus [4] = assay: Inhibition of SP-induced pulmonary edema in guinea-pig 240 min after oral administration at a dose of 10 mg/kg; format: functional; settings: 4 h
Rattus norvegicus = species on record: Rattus norvegicus; assay: Inhibition of contraction induced by 100 mM KCl in isolated rat aorta; format: functional
Cavia porcellus [5] = assay: Inhibition of SP-induced pulmonary edema in guinea-pig 60 min after oral administration at a dose of 10 mg/kg; format: functional; settings: 1 h
Caco-2 = assay: Caco-2 permeability was measured; format: functional, cell-based; settings: Homo sapiens
Substance-P receptor [6] = target: T1, Substance-P receptor; assay: Displacement of [3H]-substance P from human NK1 receptor expressed in CHO cells, at 10e-5 M; format: cell-based
[7] = pKa value was evaluated; format: physicochemical
[8] = LogD distribution coefficient between octanol and PBS at pH7.4; format: physicochemical; settings: pH 7.4, read-out: LogD7.4
[9] = Solubility was measured; format: physicochemical
Cavia porcellus [10] = assay: Inhibition of SP-induced pulmonary edema in guinea-pig 240 min after oral administration at a dose of 1 mg/kg; format: functional; settings: 4 h
Cavia porcellus [11] = assay: Inhibition of SP-induced pulmonary edema in guinea-pig 30 min after oral administration at a dose of 1 mg/kg; format: functional; settings: 0.5 h
Cavia porcellus [12] = assay: Inhibition of SP-induced pulmonary edema in guinea-pig 60 min after oral administration at a dose of 1 mg/kg; format: functional; settings: 1 h

T1 sequence (P25103 whole entry): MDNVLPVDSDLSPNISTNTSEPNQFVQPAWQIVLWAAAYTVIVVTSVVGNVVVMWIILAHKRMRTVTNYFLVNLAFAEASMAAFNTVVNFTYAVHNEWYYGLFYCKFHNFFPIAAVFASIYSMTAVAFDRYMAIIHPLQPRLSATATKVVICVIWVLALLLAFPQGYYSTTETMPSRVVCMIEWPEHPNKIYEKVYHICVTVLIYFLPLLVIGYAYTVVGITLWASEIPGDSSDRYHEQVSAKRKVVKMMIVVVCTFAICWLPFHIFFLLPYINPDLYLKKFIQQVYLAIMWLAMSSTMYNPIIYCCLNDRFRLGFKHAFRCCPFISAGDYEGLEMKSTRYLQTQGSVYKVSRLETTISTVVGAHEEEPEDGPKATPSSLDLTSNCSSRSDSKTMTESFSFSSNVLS

Compound: Clc1ccc(COCC(c2ccccc2)N2CCNCC2)cc1Cl (stereo unspecified)
- Ki (Substance-P receptor [1]): 100 nM

Compound: CCOC(=O)N1CCN(C(COCc2cc(C(F)(F)F)cc(C(F)(F)F)c2)c2ccccc2)CC1 (stereo unspecified)
- Ki (Substance-P receptor [1]): 63.1 nM

Compound: FC(F)(F)c1cc(COCC(c2ccccc2)N2CCN(CCCCc3nnn[nH]3)CC2)cc(C(F)(F)F)c1 (stereo unspecified)
- inhibition in vivo at 10 mg/kg (Cavia porcellus [2]): 65%
- inhibition in vivo at 10 mg/kg (Cavia porcellus [3]): 65%
- inhibition in vivo at 10 mg/kg (Cavia porcellus [4]): 20%
- pD2 (Rattus norvegicus): <4
- inhibition in vivo at 10 mg/kg (Cavia porcellus [5]): 99%
- Papps (Caco-2): 2.6 ×10⁻⁶ cm/s

Compound: Fc1cc(F)cc(COCC(c2ccccc2)N2CCNCC2)c1 (stereo unspecified)
- Ki (Substance-P receptor [1]): 200 nM

Compound: C[C@@H](OC[C@H](c1ccccc1)N1CCN(CCOCC(=O)O)CC1)c1cc(C(F)(F)F)cc(C(F)(F)F)c1
- inhibition (Substance-P receptor [6]): < 20%

Compound: COC(=O)CN1CCN(C(COCc2cc(C(F)(F)F)cc(C(F)(F)F)c2)c2ccccc2)CC1 (stereo unspecified)
- Ki (Substance-P receptor [1]): 39.8 nM

Compound: C[C@@H](OC[C@H](c1ccccc1)N1CCN(CC(=O)O)CC1)c1cc(C(F)(F)F)cc(C(F)(F)F)c1
- inhibition (Substance-P receptor [6]): < 20%

Compound: FC(F)(F)c1cc(COCC(c2ccc3ccccc3c2)N2CCNCC2)cc(C(F)(F)F)c1 (stereo unspecified)
- Ki (Substance-P receptor [1]): 31.6 nM

Compound: Clc1ccccc1COCC(c1ccccc1)N1CCNCC1 (stereo unspecified)
- inhibition (Substance-P receptor [6]): 50%

Compound: COc1ccccc1COCC(c1ccccc1)N1CCNCC1 (stereo unspecified)
- inhibition (Substance-P receptor [6]): < 20%

Compound: Fc1ccc(C(COCc2cc(C(F)(F)F)cc(C(F)(F)F)c2)N2CCNCC2)cc1 (stereo unspecified)
- Ki (Substance-P receptor [1]): 79.4 nM

Compound: FC(F)(F)c1cc(COCC(c2ccccc2)N2CCNCC2)cc(C(F)(F)F)c1 (stereo unspecified)
- logD [8]: 2.41
- pD2 (Rattus norvegicus): 5.38
- Papps (Caco-2): 2.1 ×10⁻⁶ cm/s
- solubility [9]: 200 µg/mL (≈ 463 µM)

Compound: C[C@H](OC[C@H](c1ccccc1)N1CCN(CCOCC(=O)O)CC1)c1cc(C(F)(F)F)cc(C(F)(F)F)c1
- logD [8]: 2.64
- pD2 (Rattus norvegicus): <4
- inhibition in vivo at 1 mg/kg (Cavia porcellus [10]): 70%
- inhibition in vivo at 1 mg/kg (Cavia porcellus [11]): 77%
- inhibition in vivo at 1 mg/kg (Cavia porcellus [12]): 75%
- Papps (Caco-2): 8.7 ×10⁻⁶ cm/s
- solubility [9]: > 2000 µg/mL

Compound: FC(F)(F)c1cc(COCC(c2ccco2)N2CCNCC2)cc(C(F)(F)F)c1 (stereo unspecified)
- Ki (Substance-P receptor [1]): 158 nM

Continued by falling Ki (Substance-P receptor [1]), values first:

- Ki (Substance-P receptor [1]): 15.8 nM
Compound: Oc1n[nH]c(CN2CCN(C(COCc3cc(C(F)(F)F)cc(C(F)(F)F)c3)c3ccccc3)CC2)n1 (stereo unspecified)

- Ki (Substance-P receptor [1]): 12.6 nM
Compound: Fc1cc(COCC(c2ccccc2)N2CCNCC2)cc(C(F)(F)F)c1 (stereo unspecified)

- Ki (Substance-P receptor [1]): 7.94 nM
- pKa [7]: 6.2
Compound: NC(=O)CN1CCN([C@H](COCc2cc(C(F)(F)F)cc(C(F)(F)F)c2)c2ccccc2)CC1

- Ki (Substance-P receptor [1]): 7.94 nM
Compound: COc1c(Br)cc(Br)cc1COCC(c1ccccc1)N1CCNCC1 (stereo unspecified)

- Ki (Substance-P receptor [1]): 7.94 nM
Compound: FC(F)(F)c1cc(COCC(c2cccs2)N2CCNCC2)cc(C(F)(F)F)c1 (stereo unspecified)

- Ki (Substance-P receptor [1]): 6.31 nM
Compound: COc1ccccc1C(COCc1cc(C(F)(F)F)cc(C(F)(F)F)c1)N1CCNCC1 (stereo unspecified)

- Ki (Substance-P receptor [1]): 5.01 nM
Compound: Fc1ccccc1C(COCc1cc(C(F)(F)F)cc(C(F)(F)F)c1)N1CCNCC1 (stereo unspecified)

- Ki (Substance-P receptor [1]): 5.01 nM
Compound: Brc1cc(Br)cc(COCC(c2ccccc2)N2CCNCC2)c1 (stereo unspecified)

- Ki (Substance-P receptor [1]): 3.16 nM
- pKa [7]: 7.4
Compound: NC(=O)COCCN1CCN(C(COCc2cc(C(F)(F)F)cc(C(F)(F)F)c2)c2ccccc2)CC1 (stereo unspecified)

- Ki (Substance-P receptor [1]): 3.16 nM
Compound: Fc1cccc(C(COCc2cc(C(F)(F)F)cc(C(F)(F)F)c2)N2CCNCC2)c1F (stereo unspecified)

- Ki (Substance-P receptor [1]): 2.51 nM
- logD [8]: 4.09
- solubility [9]: 1 µg/mL (≈ 2.05 µM)
Compound: CCCCN1CCN(C(COCc2cc(C(F)(F)F)cc(C(F)(F)F)c2)c2ccccc2)CC1 (stereo unspecified)
- inhibition in vivo at 10 mg/kg (Cavia porcellus [2]): 62%
- inhibition in vivo at 10 mg/kg (Cavia porcellus [4]): 58%
- pD2 (Rattus norvegicus): 4.6
- Papps (Caco-2): 5.2 ×10⁻⁶ cm/s

- Ki (Substance-P receptor [1]): 2 nM
Compound: Fc1cccc(C(COCc2cc(C(F)(F)F)cc(C(F)(F)F)c2)N2CCNCC2)c1 (stereo unspecified)

- Ki (Substance-P receptor [1]): 2 nM
Compound: FC(F)(F)c1cc(COCC(c2ccccc2)N2CCN(Cc3ccccn3)CC2)cc(C(F)(F)F)c1 (stereo unspecified)

- Ki (Substance-P receptor [1]): 1.58 nM
Compound: FC(F)(F)c1cc(COCC(c2cccc(Cl)c2)N2CCNCC2)cc(C(F)(F)F)c1 (stereo unspecified)

- Ki (Substance-P receptor [1]): 1.26 nM
Compound: C[C@H](OC[C@H](c1ccccc1)N1CCN(CC(=O)O)CC1)c1cc(C(F)(F)F)cc(C(F)(F)F)c1
